Where “and” joins values, the source holds several entries; their conditions need not be identical. Identical values can stand only once.
How the values were obtained:
647-RhoA = molecular target: T1, 647-RhoA (Homo sapiens, UniProt P61586); experiment: Microscale thermophoresis (MST) with 647-RhoA; format: binding
T1 construct: made in house
Protocol: (§1) The final concentration of GFP-AKAP-Lbc/DHPH was set to 150 nM, 95% LED and 80% MST laser power. […] The samples were incubated in the dark for 1 h incubation at room temperature, and measured with 30 sec laser-on and 5 sec laser-off time at a Monolith NT.115 device (NanoTemper). Measured fluorescence (F) was normalised (Fhot/Fcold = Fsteady state/Finitial state, Fig 3). Values of thermophoresis + T-jump were related to average of each measurement row (16 capillaries). Final values are given as ‰.
(§2) Fig 4 The Scaff10 derivative Scaff10-8 binds to RhoA but not to the DHPH domain of AKAP-Lbc. (A-D) Microscale thermophoresis (MST) takes advantage of the phenomenon of directed movement of particles in a temperature gradient. Binding events lead to changes in the hydration shell of biomolecules and a relative change of movement of the molecular complex along a temperature gradient. Using such changes, binding affinities can be determined. MST assays were carried out with (A) the recombinant DHPH domain of AKAP-Lbc fused with GFP and RhoA as a ligand and (B) fluorescent 647-RhoA and the His-tagged AKAP-Lbc/DHPH domain as a ligand. (C) MST assays for the analysis of the binding of Scaff10-8 to 647-RhoA. Upper panels: The concentration of fluorescent 647-RhoA remained constant and Scaff10-8 (left) and Scaff10-7 as a negative control (right) were titrated in increasing concentrations. Lower panels: Values of fluorescence corresponding to upper panels. (D) MST assay showing no binding of Scaff10-8 or Scaff10-7 to GFP-DHPH. Upper panels: The concentration of fluorescent GFP-AKAP-Lbc/DHPH remained constant and Scaff10-8 (left) and Scaff10-7 (right) were titrated in increasing concentrations. Lower panels: Values of fluorescence corresponding to upper panels. […] F norm = normalized fluorescence (fluorescence steady state/fluorescence initial state) indicated in ‰. n = 3–5. Mean ± SEM. […] The ligand protein named in each panel heading is used as the substance label, and it is uncertain whether these count as substances.

GFP-AKAP-Lbc/DHPH = molecular target: T2, GFP-AKAP-Lbc/DHPH (Homo sapiens, UniProt Q12802); experiment: Microscale thermophoresis (MST) with GFP-AKAP-Lbc/DHPH; format: binding; conditions: result in words
T2 construct: His6-AKAP-Lbc/DHPH (aa 1972–2342 of human AKAP-Lbc; NP_006729.4); made in house; host or cells: HEK293-EBNA cells (transient transfection, pTT5)
T2 sequence (Q12802 1972-2342 isoform Q12802-2): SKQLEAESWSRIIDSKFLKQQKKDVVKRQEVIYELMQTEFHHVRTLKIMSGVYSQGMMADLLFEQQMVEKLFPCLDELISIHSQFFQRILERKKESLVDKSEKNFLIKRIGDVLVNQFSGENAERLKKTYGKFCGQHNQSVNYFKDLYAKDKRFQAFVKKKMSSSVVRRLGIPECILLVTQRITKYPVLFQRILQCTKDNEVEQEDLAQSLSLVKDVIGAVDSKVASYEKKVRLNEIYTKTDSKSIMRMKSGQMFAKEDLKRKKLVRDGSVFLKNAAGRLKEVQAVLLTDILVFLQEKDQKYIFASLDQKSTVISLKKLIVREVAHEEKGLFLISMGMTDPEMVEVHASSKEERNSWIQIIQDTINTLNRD
Protocol: as §1, §2

[1] = tested on: IMCD, MCD4, HEK293, MCF7 and H9C2 cells; experiment: MTS cytotoxicity assay; format: cell-based, rat, mouse, human; conditions: 3–100 μM, 24–72 h
Protocol: The potential cytotoxicity of Scaff10-8 on primary IMCD and several permanent cell lines (MCF7, H9C2, HEK293, MCD4) was assessed using the tetrazolium compound-based CellTiter 96 AQueous One Solution Cell Proliferation (3-(4,5-dimethylthiazol-2-yl)-5-(3-carboxymethoxyphenyl)-2-(4-sulfophenyl)-2H-tetrazolium) (MTS) assay according to the instructions of the manufacturer. In brief, the cells were seeded into 96 well plates (5,000 cells per well) and cultured in their appropriate medium Scaff10-8 (100 μM, 30 μm and 3 μm, 0.3% final DMSO concentration) were added, DMSO (0.3%) was included as a control. Staurosporine (1 μM) was included as a positive control. All conditions were tested in quadruplicate. At the indicated time points, the MTS reagent was added. Absorption was determined 4 h after addition of MTS reagent at 450 nm wavelength. The MST reagent absorbance at 450 nm is proportional to the amount of living cells. A blank measurement determined the medium absorption (background). Values were normalized to untreated cells after 24 h for each cell line.
Fig 6 Scaff10-8 is not cytotoxic. […] (B) Cytotoxicity was assessed after 24–72 h of incubation with Scaff10-8 (3, 30, 100 μM). […] Absorption was determined at 450 nm and was related to medium absorption (blank). […] Statistically significant differences were determined applying one-way ANOVA with posthoc Bonferroni. […]

T1 sequence (P61586 whole entry): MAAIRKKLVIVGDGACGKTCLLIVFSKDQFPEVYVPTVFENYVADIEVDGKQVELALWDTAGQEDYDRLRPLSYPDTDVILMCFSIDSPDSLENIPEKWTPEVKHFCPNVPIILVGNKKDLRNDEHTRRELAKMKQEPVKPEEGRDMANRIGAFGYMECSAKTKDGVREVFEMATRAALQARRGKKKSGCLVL

Row | binding to 647-RhoA (647-RhoA; result in words) | SMILES | binding to GFP-AKAP-Lbc/DHPH (GFP-AKAP-Lbc/DHPH) | Kd (647-RhoA; KD for binding to 647-RhoA, mean ± SEM, n = 3–5) | viability of cells (MTS) [1]
1 | did not bind | CCOC(=O)CCc1c(C)c2ccc(OCC(=O)c3ccc(OC)cc3)cc2oc1=O [Scaff10-7, Ethyl 3-[7-[2-(4-methoxyphenyl)-2-oxo-ethoxy]-4-methyl-2-oxo-chromen-3-yl]propanoate] | no binding | – | –
2 | – | COc1ccc(-c2coc3cc4oc(=O)c(CCC(=O)O)c(C)c4cc23)cc1 [Scaff10-8, 3-[3-(4-Methoxyphenyl)-5-methyl-7-oxo-furo[3,2-g]chromen-6-yl] propanoic acid] | no binding | 20 µM and 20.2 µM | did not influence the viability

Source: PMC5786306, “An AKAP-Lbc-RhoA interaction inhibitor promotes the translocation of aquaporin-2 to the plasma membrane of renal collecting duct principal cells” (PLoS ONE, 2018)
